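Exposure lasted 48 hours, with cells grown in 96-well plates and compounds tested at five concentrations. Definition used: TGI = concentration required for complete inhibition of growth.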
Key:
Assay in all cases: growth of human tumour cells (NCI), 48 h
[1] = system: NCI-H226 lung
[2] = system: DMS 273 small cell lung
[3] = system: SW-620 colon
[4] = system: UACC-257 melanoma
[5] = system: SK-MEL-5 melanoma
[6] = system: LXFL 529 NSCLC
[7] = system: SK-MEL-2 melanoma
[8] = system: HCT-116 colon
[9] = system: UO-31 renal
[10] = system: M19-MEL melanoma
[11] = system: SF-268 CNS
[12] = system: MDA-MB-231 breast
[13] = system: RPMI-8226 leukemia
[14] = system: MCF7 breast
[15] = system: SNB-19 CNS
[16] = system: U251 CNS
[17] = system: SNB-78 CNS
[18] = system: MALME-3M melanoma
[19] = system: T-47D breast
[20] = system: IGROV1 ovarian
[21] = system: DU-145 prostate
[22] = system: MDA-N
[23] = system: HL-60(TB) leukemia
[24] = system: KM20L2 colon
[25] = system: NCI-H460 lung
[26] = system: ACHN renal
[27] = system: A498 renal
[28] = system: HCT-15 colon
[29] = system: M14 melanoma
[30] = system: LOX IMVI melanoma
[31] = system: TK-10 renal
[32] = system: RXF 393 renal
[33] = system: NCI/ADR-RES ovarian
[34] = system: OVCAR-5 ovarian
[35] = system: OVCAR-3 ovarian
[36] = system: HCC-2998 colon
[37] = system: K-562 leukemia
[38] = system: OVCAR-4 ovarian
[39] = system: HOP-92 NSCLC
[40] = system: MDA-MB-435
[41] = system: XF 498 CNS
[42] = system: SK-OV-3 ovarian
[43] = system: SF-539 CNS
[44] = system: KM12 colon
[45] = system: COLO 205 colon
[46] = system: HT29 colon
[47] = system: OVCAR-8 ovarian
[48] = system: 786-0 renal
[49] = system: SR leukemia
[50] = system: EKVX NSCLC
[51] = system: DMS 114 small cell lung
[52] = system: UACC-62 melanoma
[53] = system: SNB-75 CNS
[54] = system: SK-MEL-28 melanoma
[55] = system: SN12C renal
[56] = system: DLD-1 colon
[57] = system: SF-295 CNS
[58] = system: NCI-H522 lung
[59] = system: CAKI-1 renal
[60] = system: CCRF-CEM leukemia
[61] = system: BT-549 breast
[62] = system: PC-3 prostate
[63] = system: HS 578T breast
[64] = system: NCI-H23 lung
[65] = system: A549 NSCLC
[66] = system: MOLT-4 leukemia
[67] = system: HOP-62 NSCLC
[68] = system: HOP-18 NSCLC
[69] = system: RXF-631 renal

Measured: TGI

CCOC(=O)C(Cc1cc(OC)c(CC(C(=O)OCC)C(=O)OCC)cc1OC)C(=O)OCC
57.6 µM: [53]
83.8 µM: [39]
97.7 µM: [32]
53.7 µM: [41]
> 100 µM: [1] | [2] | [3] | [4] | [5] | [6] | [7] | [8] | [9] | [10] | [11] | [12] | [13] | [14] | [15] | [16] | [17] | [18] | [19] | [20] | [21] | [22] | [23] | [24] | [25] | [26] | [27] | [28] | [29] | [30] | [31] | [33] | [34] | [35] | [36] | [37] | [38] | [40] | [42] | [43] | [44] | [45] | [46] | [47] | [48] | [49] | [50] | [51] | [52] | [54] | [55] | [56] | [57] | [58] | [59] | [60] | [61] | [62] | [63] | [64] | [65] | [66] | [67]

C=C1C(=O)OC2C[C@@]3(C)CCCC(=C)C3CC12 (some centres undefined)
26.6 µM: [38]
25.9 µM: [24]
24.6 µM: [47]
> 100 µM: [49] | [60]
15.2 µM: [8]
19.2 µM: [27]
26.9 µM: [26] | [64]
31.3 µM: [68]
20.4 µM: [5]
33.6 µM: [34]
28.2 µM: [11]
14.6 µM: [39]
33.7 µM: [42]
3.65 µM: [58]
14.7 µM: [56]
33.3 µM: [20]
31.5 µM: [50]
22 µM: [4]
27.7 µM: [65]
3.7 µM: [43]
26.7 µM: [36]
6.85 µM: [45]
23.5 µM: [31]
19.4 µM: [59]
14.4 µM: [3]
18.1 µM: [25] | [52]
24 µM: [46] | [54]
20.6 µM: [29]
13.4 µM: [18]
10.5 µM: [32]
23.4 µM: [15]
20.1 µM: [53]
10.7 µM: [2]
5.94 µM: [44]
26 µM: [1]
21.7 µM: [16]
34.9 µM: [67]
11.8 µM: [6]
29.8 µM: [51]
2.59 µM: [30]
16.7 µM: [55]
13.5 µM: [17] | [41]
17.1 µM: [9]
12.7 µM: [7]
23.6 µM: [57]
22.6 µM: [35]
24.7 µM: [28]

C[C@@H]1CC2(C[C@@H](C)C3[C@@H](CC4(C)CCCC5C6=CC(O)(CC[C@]34C)OC6=CC(=O)OC5(C)C)O2)OC1=O (some centres undefined)
> 100 µM: [1] | [2] | [3] | [5] | [6] | [7] | [68] | [8] | [9] | [13] | [15] | [16] | [18] | [20] | [23] | [26] | [28] | [29] | [30] | [31] | [32] | [34] | [35] | [36] | [37] | [38] | [39] | [41] | [42] | [43] | [44] | [45] | [48] | [49] | [51] | [52] | [53] | [54] | [55] | [56] | [58] | [64] | [65] | [66]

C[C@]12CC[C@H](OC(=O)Nc3ccccc3)CC1=CC[C@@H]1C2CC[C@]2(C)/C(=N/OC(=O)Nc3ccccc3)CCC12 (some centres undefined)
72.1 µM: [39]
2.52 µM: [6]
3.31 µM: [28]
3.19 µM: [41]
7.91 µM: [9]
> 100 µM: [2] | [3] | [5] | [7] | [8] | [10] | [69] | [11] | [13] | [15] | [16] | [17] | [20] | [23] | [24] | [25] | [26] | [27] | [29] | [30] | [31] | [34] | [35] | [36] | [37] | [38] | [42] | [43] | [44] | [45] | [46] | [47] | [48] | [50] | [51] | [52] | [53] | [57] | [60] | [64] | [65] | [66]
4.96 µM: [59]
3.32 µM: [55]
37.9 µM: [68]

O=c1[nH]c(=S)[nH]c2c1CCCN2
> 100 µM: [3] | [4] | [5] | [6] | [7] | [68] | [8] | [9] | [10] | [69] | [11] | [13] | [15] | [16] | [17] | [18] | [20] | [23] | [26] | [28] | [29] | [30] | [31] | [32] | [34] | [35] | [39] | [42] | [44] | [45] | [46] | [47] | [48] | [49] | [50] | [51] | [52] | [53] | [54] | [55] | [56] | [57] | [58] | [59] | [60] | [64] | [65] | [66] | [67]

COc1ccccc1/C=C(\NC(=O)c1ccccc1)c1nc2ccccc2[nH]1
51.7 µM: [13]
72.5 µM: [39]
48 µM: [5]
> 100 µM: [3] | [4] | [7] | [68] | [8] | [9] | [10] | [69] | [11] | [15] | [16] | [17] | [18] | [20] | [24] | [25] | [26] | [27] | [28] | [29] | [30] | [31] | [32] | [34] | [35] | [37] | [38] | [41] | [42] | [43] | [44] | [46] | [47] | [48] | [50] | [51] | [52] | [53] | [54] | [55] | [56] | [58] | [59] | [60] | [64] | [65] | [66]
96.9 µM: [6]
80.3 µM: [45]

CNC(=O)NCCCCC(NC(C)=O)C(=O)NCc1ccccc1 (centres undefined)
> 100 µM: [1] | [2] | [3] | [4] | [5] | [6] | [7] | [8] | [9] | [10] | [69] | [11] | [13] | [15] | [16] | [17] | [18] | [20] | [24] | [25] | [26] | [27] | [28] | [29] | [30] | [31] | [32] | [34] | [35] | [36] | [38] | [39] | [41] | [42] | [43] | [44] | [45] | [46] | [47] | [48] | [50] | [51] | [52] | [53] | [54] | [55] | [56] | [57] | [58] | [59] | [60] | [64] | [65] | [66] | [67]

From PubChem BioAssay (NCI)
